The nature of assay [1]: Inhibition of tubulin polymerization at 3 uM after 1 hr by fluorescence assay.
The next assay relates to MCF7. Description: cells. Particulars: Homo sapiens, MCF7, 48 h.
The subject of a further assay is ACHN. Description: Cytotoxicity against human ACHN cells after 48 hrs by MTT assay. It is filed as functional, cell-based.
The test system of another assay is HT-29. Description: Cytotoxicity against human HT-29 cells after 48 hrs by MTT assay. Particulars: HT-29, 48 h. It is filed as functional, cell-based.
For assay [2], the system named is A549. Description: cells. Particulars: Homo sapiens, A549, 48 h.
Description: Cytotoxicity against human A549 cells after 48 hrs by MTT assay
Another assay deals with A-375. The experiment in a line: Cytotoxicity against human A375 cells after 48 hrs by MTT assay. It is filed as functional, cell-based. The following applies: A-375, 48 h.
For assay [3], the system named is A549. Description: Cell cycle arrest in human A549 cells assessed as cell accumulation at subG1 phase at 2 uM after 48 hrs by propidium iodide staining based flow cytometry (reference value: […]). It counts as functional.
The test system of assay [4] is A549. Description: Cell cycle arrest in human A549 cells assessed as cell accumulation at G0/G1 phase at 2 uM after 48 hrs by propidium iodide staining based flow cytometry (reference value: 70.15%). It is filed as functional.
Assay [5] in a line: Inhibition of tubulin polymerization after 1 hr by fluorescence assay.
Assay [6] deals with A549. The experiment in a line: Cell cycle arrest in human A549 cells assessed as cell accumulation at G2/M phase at 2 uM after 48 hrs by propidium iodide staining based flow cytometry (reference value: 23.75%). It is filed as functional.
The target of a further assay is Tubulin (Homo sapiens) (UniProt P68371+Q9H4B7+P0DPH7+P68366+Q13509+Q71U36+P04350+Q3ZCM7+P07437+P68363+Q9BQE3+Q6PEY2+Q13885+Q9BVA1+Q9BUF5). The experiment in a line: Inhibition of tubulin polymerization in human A549 cells assessed as disrupted microtubule organization at 2 uM after 48 hrs by immunohistochemistry analysis. It counts as cell-based.
For assay [7], the system named is A549. Description: Induction of apoptosis in human A549 cells assessed as increase in caspase3 activity using AFC-conjugated Ac-DEVD as substrate at 2 uM after 48 hrs by fluorescence assay relative to control. It counts as functional.
For assay [8], the system named is A549. Description: Induction of apoptosis in human A549 cells assessed as viable cells at 2 uM after 48 hrs by annexin-V FITC/propidium iodide staining based FACS analysis. It counts as functional. Particulars: A549, 48 h, read-out: Activity.
The subject of assay [9] is A549. The experiment in a line: Induction of apoptosis in human A549 cells assessed as late apoptotic cells at 2 uM after 48 hrs by annexin-V FITC/propidium iodide staining based FACS analysis. It is filed as functional.
Assay [10] concerns A549. The experiment in a line: Induction of apoptosis in human A549 cells assessed as necrotic cells at 2 uM after 48 hrs by annexin-V FITC/propidium iodide staining based FACS analysis. It counts as functional.
The subject of assay [11] is A549. The experiment in a line: Induction of apoptosis in human A549 cells assessed as early apoptotic cells at 2 uM after 48 hrs by annexin-V FITC/propidium iodide staining based FACS analysis. It counts as functional.

Calls of active or inactive are those of the source. The calls are words filed in the database; no cut-off is given here.

Description for MCF7: Cytotoxicity against human MCF7 cells after 48 hrs by MTT assay

In the case of `COC(=O)Nc1nc2cc(C(=O)c3cccs3)ccc2[nH]1`, in [1], the inhibition is 59.6%.
As to `CCOc1ccc2nc(NC(=O)COc3cc(/C=C/C(=O)c4cc(OC)c(OC)c(OC)c4)ccc3OC)sc2c1`, the IC50 with MCF7 worked out at 4200 nM; in the assay on ACHN, 2600 nM; in the assay on HT-29 (read-out: IC50), 2400 nM; in the assay with A549 [2], 8100 nM; with A-375, 5800 nM.
Taken in the same sequence, the figures for `COc1ccc(/C=C/C(=O)c2cc(OC)c(OC)c(OC)c2)cc1OCC(=O)Nc1nc2c(C)cccc2s1` were 2500 nM, 3800 nM, 6100 nM, 5100 nM and 2800 nM.
Regarding `COc1ccc(/C=C/C(=O)c2cc(OC)c(OC)c(OC)c2)cc1O`, the concentration for half-maximal inhibition (IC50) with MCF7 amounted to 120 nM; in the assay with ACHN it was 1620 nM; with HT-29 (read-out: IC50), 1900 nM; in the assay on A549 [2], 760 nM; in assay [5], 3700 nM; with A-375, 190 nM. The same molecule had an inhibition in [1] of 62.6%. Moreover, the results for the Activity in the assay with A549 [3], in the assay with A549 [4] and with A549 [6] were 12.34%, 18.59% and 55.47%, respectively. Moreover, the inhibition entry at Tubulin (Homo sapiens) is “Active”. Further, the “fold change (FC)” value in the assay on A549 [7] was 6.
Consider `COc1ccc(/C=C\c2cc(OC)c(OC)c(OC)c2)cc1O` [COMBRETASTATIN A4], for which the 50% inhibitory concentration (IC50) with MCF7 was 180 nM; with ACHN, 170 nM; with HT-29, 930 nM; in the assay on A549 [2], 110 nM; in the assay on A-375 it was 210 nM. The molecule also returned an inhibition in assay [1] of 69.7%. The Activity with A549 [3] is recorded as 8.44%; in the assay on A549 [4], 13.98%; in the assay with A549 [9], 23.3%; in the assay on A549 [6], 63.75%; in the assay with A549 [10], 22%; in the assay with A549 [11] it was 0.3%. In addition, the viability at 2 µM in the assay on A549 [8] was 54.4%.
Consider `COc1ccc(/C=C/C(=O)c2cc(OC)c(OC)c(OC)c2)cc1OCC(=O)Nc1nc2ccccc2s1`, for which the inhibition entry at Tubulin (Homo sapiens) is “Active”.

These data come from ChEMBL document CHEMBL2034833, “Synthesis of chalcone-amidobenzothiazole conjugates as antimitotic and apoptotic inducing agents” (Bioorg Med Chem, 2012).
